Assays:
galium = test: Test C pre-/postemergence herbicide test; type: in vivo, Galium aparine
In short: (§1)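 Test compounds, formulated in a surfactant-containing non-phytotoxic solvent blend, are applied to seeded loam/sand soil (preemergence) and to young plants at the 1- to 4-leaf stage in peat-based medium (postemergence). Plants stay 13 to 15 days under greenhouse conditions, then are scored visually relative to controls, 0 = no effect, 100 = complete control.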

kochia = test: Test C pre-/postemergence herbicide test; type: in vivo, Kochia scoparia
Description: Seeds of plant species selected from blackgrass (Alopecurus myosuroides), ryegrass, Italian (Italian ryegrass, Lolium multiflorum), wheat (winter wheat, Triticum aestivum), galium (catchweed bedstraw, Galium aparine), corn (Zea mays), crabgrass, large (large crabgrass, Digitaria sanguinalis), foxtail, giant (giant foxtail, Setaria faberii), johnsongrass (Sorghum halepense), lambsquarters (Chenopodium album), morningglory (Ipomoea coccinea), nutsedge, yellow (yellow nutsedge, Cyperus esculentus), pigweed (Amaranthus retroflexus), ragweed (common ragweed, Ambrosia elatior), soybean (Glycine max), barnyardgrass (Echinochloa crus-galli), oilseed rape (Brassica napus), waterhemp (common waterhemp, Amaranthus rudis), kochia (Kochia scoparia), oat, wild (wild oat, Avena fatua), surinam grass (Brachiaria decumbens), foxtail, green (green foxtail, Setaria viridis), goosegrass (Eleusine indica), bromegrass, downy (downy bromegrass, Bromus tectorum), nightshade (eastern black nightshade, Solanum ptycanthum), cocklebur (common cocklebur, Xanthium strumarium), cupgrass, woolly (woolly cupgrass, Eriochloa villosa), bermudagrass (Cynodon dactylon), sunflower, (common oilseed sunflower, Helianthus annuus), Russian thistle (Salsola kali) and velvetleaf (Abutilon theophrasti) were planted into a blend of loam soil and sand and treated preemergence with test chemicals formulated in a non-phytotoxic solvent mixture which included a surfactant. At the same time, plants selected from these crop and weed species and also barley (winter barley, Hordeum vulgare), […]), chickweed (common chickweed, Stellaria media), deadnettle (henbit deadnettle, Lamium amplexicaule), and canarygrass (littleseed canarygrass, Phalaris minor) were planted in pots containing Redi-Earth® planting medium (Scotts Company, 14111 Scottslawn Road, Marysville, Ohio 43041) comprising spaghnum peat moss, vermiculite, wetting agent and starter nutrients and treated with postemergence applications of test chemicals formulated in the same manner. Plants ranged in height from 2 to 18 cm (1- to 4-leaf stage) for postemergence treatments. Treated plants and controls were maintained in a greenhouse for 13 to 15 days, after which time all species were compared to controls and visually evaluated. Plant response ratings, summarized in Table C, are based on a scale of 0 to 100 where 0 is no effect and 100 is complete control. A dash (-) response means no test result.

morningglory = test: Test C pre-/postemergence herbicide test; type: in vivo, Ipomoea coccinea
In short: as §1

foxtail, giant = test: Test C pre-/postemergence herbicide test; type: in vivo, Setaria faberii
In short: as §1

oat, wild = test: Test C pre-/postemergence herbicide test; type: in vivo, Avena fatua
In short: as §1

pigweed = test: Test A pre-/postemergence herbicide test; type: in vivo, Amaranthus retroflexus
In short: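 Planted in loam–sand blend; treated the same day preemergence by directed soil spray, while separately grown plants at one- to two-leaf stage got postemergence spray. Compared visually with untreated controls after approximately 10 days; 100 means complete control.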

rice = test: Test C flooded paddy test; type: in vivo, Oryza sativa; details: Flood, scale of 0 to 100 where 0 is no effect and 100 is complete control, 13 to 15 days
In short: (§2)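 2-leaf stage; flood 3 cm over soil; compound into paddy water; depth held; greenhouse 13–15 d; visual % control vs untreated (0 = none, 100 = complete); "-" = not tested.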

barnyardgrass = test: Test C flooded paddy test; type: in vivo, Echinochloa crus-galli; details: Flood, scale of 0 to 100 where 0 is no effect and 100 is complete control, 13 to 15 days
In short: as §2

blackgrass = test: Test A postemergence herbicide test; type: in vivo, Alopecurus myosuroides
In short: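 Young potted plants in a loam–sand mix, one- to two-leaf stage and 2–10 cm tall, receive the test chemical postemergence and stay in a greenhouse for approximately 10 days. Injury is then judged by eye against untreated plants, scored 0 (none) to 100 (complete control).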

[1] = Preemergence, 31 g ai/ha, scale 0 to 100 (0 no effect, 100 complete control)
[2] = Preemergence, 62 g ai/ha, scale 0 to 100
[3] = Preemergence, 125 g ai/ha, scale 0 to 100 (0 no effect, 100 complete control)
[4] = Preemergence, 250 g ai/ha, scale 0 to 100 (0 no effect, 100 complete control)
[5] = Postemergence, 1000 g ai/ha, 0 to 100 scale (0 no effect, 100 complete control)
[6] = Preemergence, 1000 g ai/ha, visual rating on 0 to 100 scale (0 no effect, 100 complete control), approx. 10 days
[7] = Postemergence, 31 g ai/ha, scale 0 (no effect) to 100 (complete control)
[8] = Postemergence, 62 g ai/ha, scale 0 to 100 (0 no effect, 100 complete control)
[9] = Postemergence, 125 g ai/ha, scale 0 to 100 (0 no effect, 100 complete control)
[10] = Postemergence, 250 g ai/ha, scale 0 to 100 (0 no effect, 100 complete control)
[11] = Preemergence, 31 g ai/ha, scale 0 to 100, 0 is no effect and 100 is complete control
[12] = Preemergence, 62 g ai/ha, scale 0 to 100 (0 no effect, 100 complete control)
[13] = Preemergence, 125 g ai/ha, scale 0 to 100
[14] = Postemergence, 31 g ai/ha, scale 0 to 100 (0 no effect, 100 complete control)
[15] = Postemergence, 62 g ai/ha, scale 0 (no effect) to 100 (complete control)

How did the “Galium plant response rating” value (galium; [1]) turn out when `O=C1NCC(c2cc(F)c(F)c(F)c2)C1C(=O)Nc1ccccc1C(F)(F)F` (racemic) [Compound 33] was run?
Its value is 0.

And the “Plant response rating, Galium” value (galium; [2])?
The value was 0.

And the “Plant response rating, Galium” value (galium; [3])?
Its value is 60.

And the “Plant response rating, Galium” value (galium; [4])?
Its value is 90.

What about the “Plant response rating, Kochia” value (kochia; [2]) of the same molecule?
The value was 0.

And the “Plant response rating, Kochia” value (kochia; [3])?
The value was 0.

What about the “Plant response rating, Morningglory” value (morningglory; [2]) of the same molecule?
The value was 0.

And the “Plant response rating, Morningglory” value (morningglory; [3])?
Its value is 0.

What about the “Foxtail, Giant plant response rating” value (foxtail, giant; [1]) of the same molecule?
The value was 75.

And the “Plant response rating, Foxtail, Giant” value (foxtail, giant; [2])?
Its value is 95.

What about the “Plant response rating, Foxtail, Giant” value (foxtail, giant; [3]) of the same molecule?
Its value is 98.

And the “Plant response rating, Foxtail, Giant” value (foxtail, giant; [4])?
Its value is 98.

And the “Plant response rating, Oat, Wild” value (oat, wild; [2])?
The value was 0.

What about the “Plant response rating, Oat, Wild” value (oat, wild; [3]) of the same molecule?
The value was 20.

And the “Plant response rating, Pigweed” value (pigweed; [5])?
Its value is 0.

What about the “Plant response rating, Pigweed” value (pigweed; [6]) of the same molecule?
Its value is 0.

With `O=C1NCC(c2cc(F)c(F)c(F)c2)C1C(=O)Nc1ccccc1F` (racemic) [Compound 34] as the molecule, how does the “Plant response rating, Galium” value (galium; [7]) read?
The value was 0.

And the “Plant response rating, Galium” value (galium; [8])?
Its value is 0.

And the “Plant response rating, Galium” value (galium; [9])?
Its value is 0.

What about the “Plant response rating, Galium” value (galium; [10]) of the same molecule?
The value was 10.

And the “Galium plant response rating” value (galium; [1])?
Its value is 0.

And the “Plant response rating, Galium” value (galium; [2])?
The value was 0.

And the “Plant response rating, Galium” value (galium; [3])?
The value was 5.

And the “Plant response rating, Galium” value (galium; [4])?
Its value is 60.

What about the “Plant response rating, Kochia” value (kochia; [7]) of the same molecule?
Its value is 5.

And the “Plant response rating, Kochia” value (kochia; [8])?
Its value is 5.

What about the “Plant response rating, Kochia” value (kochia; [9]) of the same molecule?
Its value is 5.

And the “Plant response rating, Kochia” value (kochia; [10])?
The value was 5.

And the “Plant response rating, Kochia” value (kochia; [2])?
The value was 0.

What about the “Plant response rating, Kochia” value (kochia; [3]) of the same molecule?
Its value is 0.

What about the “Plant response rating, Morningglory” value (morningglory; [7]) of the same molecule?
Its value is 0.

What about the “Plant response rating, Morningglory” value (morningglory; [8]) of the same molecule?
The value was 5.

And the “Plant response rating, Morningglory” value (morningglory; [9])?
The value was 5.

What about the “Plant response rating, Morningglory” value (morningglory; [10]) of the same molecule?
Its value is 10.

And the “Plant response rating, Morningglory” value (morningglory; [2])?
Its value is 0.

And the “Plant response rating, Morningglory” value (morningglory; [3])?
The value was 5.

What about the “Plant response rating, Foxtail, Giant” value (foxtail, giant; [7]) of the same molecule?
Its value is 0.

And the “Plant response rating, Foxtail, Giant” value (foxtail, giant; [8])?
The value was 5.

And the “Plant response rating, Foxtail, Giant” value (foxtail, giant; [9])?
Its value is 5.

What about the “Plant response rating, Foxtail, Giant” value (foxtail, giant; [10]) of the same molecule?
Its value is 35.

And the “Foxtail, Giant plant response rating” value (foxtail, giant; [1])?
The value was 90.

What about the “Plant response rating, Foxtail, Giant” value (foxtail, giant; [2]) of the same molecule?
Its value is 95.

And the “Plant response rating, Foxtail, Giant” value (foxtail, giant; [3])?
Its value is 98.

What about the “Plant response rating, Foxtail, Giant” value (foxtail, giant; [4]) of the same molecule?
The value was 98.

And the “Plant response rating, Oat, Wild” value (oat, wild; [7])?
The value was 0.

And the “Plant response rating, Oat, Wild” value (oat, wild; [8])?
Its value is 0.

What about the “Plant response rating, Oat, Wild” value (oat, wild; [9]) of the same molecule?
The value was 0.

What about the “Plant response rating, Oat, Wild” value (oat, wild; [10]) of the same molecule?
Its value is 0.

What about the “Plant response rating, Oat, Wild” value (oat, wild; [2]) of the same molecule?
The value was 0.

And the “Plant response rating, Oat, Wild” value (oat, wild; [3])?
Its value is 60.

What about the “Plant response rating, Pigweed” value (pigweed; [5]) of the same molecule?
Its value is 0.

And the “Plant response rating, Pigweed” value (pigweed; [6])?
Its value is 0.

What does the source list for `O=C1NCC(c2cccc(OC(F)F)c2)C1C(=O)Nc1cccc(F)c1F` (stereo not drawn) [Compound 324]?
Plant response rating, Rice (rice; 31 g ai/ha): 0; Plant response rating, Rice (rice; 62 g ai/ha): 0; Plant response rating, Rice (rice; 125 g ai/ha): 0; Plant response rating, Rice (rice; 250 g ai/ha): 0; Galium plant response rating (galium; [11]): 0; Galium plant response rating (galium; [12]): 60; Plant response rating, Galium (galium; [13]): 85; Plant response rating (scale of 0 to 100), Galium (galium; Preemergence, 250 g ai/ha): 85; Plant response rating, Barnyardgrass (barnyardgrass; 31 g ai/ha): 0; Plant response rating, Barnyardgrass (barnyardgrass; 62 g ai/ha): 0; Plant response rating, Barnyardgrass (barnyardgrass; 125 g ai/ha): 60; Plant response rating, Barnyardgrass (barnyardgrass; 250 g ai/ha): 70; Plant response rating, Blackgrass (blackgrass; 125 g ai/ha, visual rating on 0 to 100 scale (0 no effect, 100 complete control), approx. 10 days): 60; Plant response rating, Blackgrass (blackgrass; 500 g ai/ha, 0 to 100 scale (0 no effect, 100 complete control)): 70; Plant response rating, Morningglory (morningglory; [14]): 10; Plant response rating, Morningglory (morningglory; [15]): 5; Plant response rating, Morningglory (morningglory; [9]): 10; Plant response rating, Morningglory (morningglory; [10]): 15; Morningglory plant response rating (morningglory; [11]): 0; Morningglory plant response rating (morningglory; [12]): 0; Plant response rating, Morningglory (morningglory; [13]): 35; Plant response rating (scale of 0 to 100), Morningglory (morningglory; Preemergence, 250 g ai/ha): 55; Plant response rating, Foxtail, Giant (foxtail, giant; [14]): 0; Plant response rating, Foxtail, Giant (foxtail, giant; [15]): 10; Plant response rating, Foxtail, Giant (foxtail, giant; [9]): 75; Plant response rating, Foxtail, Giant (foxtail, giant; [10]): 60; Foxtail, Giant plant response rating (foxtail, giant; [11]): 90; Foxtail, Giant plant response rating (foxtail, giant; [12]): 90; Plant response rating, Foxtail, Giant (foxtail, giant; [13]): 95; Plant response rating (scale of 0 to 100), Foxtail, Giant (foxtail, giant; Preemergence, 250 g ai/ha): 95; Plant response rating, Oat, Wild (oat, wild; [14]): 0; Plant response rating, Oat, Wild (oat, wild; [15]): 0; Plant response rating, Oat, Wild (oat, wild; [9]): 0; Plant response rating, Oat, Wild (oat, wild; [10]): 5; Plant response rating, Pigweed (pigweed; Postemergence, 125 g ai/ha, visual rating on 0 to 100 scale (0 no effect, 100 complete control), approx. 10 days): 40; Plant response rating, Pigweed (pigweed; Postemergence, 500 g ai/ha, 0 to 100 scale (0 no effect, 100 complete control)): 70; Plant response rating, Pigweed (pigweed; Preemergence, 125 g ai/ha, 0 to 100 scale where 0 is no effect and 100 is complete control): 30; Pigweed plant response rating (pigweed; Preemergence, 500 g ai/ha, visual rating on 0 to 100 scale (0 no effect, 100 complete control)): 60
